Data taken from patent US12215129B2, “Antibacterial cyclopeptides targeting acinetobacter and other gram-negative pathogens” (priority 2020, dated 2025).
Values after ≈ are worked out from the molar mass of the structure shown. Values joined by “and” are separate entries in the source; they are usually repeats but may differ in a detail not shown here. Equal entries are not always repeated. Marks after values point to notes of the source that are not given here. Starred links: 1 amine or outer side, 2 acyl side, 3 side chain; linkers in the order of their positions; H or OH if unused. Positions of bridges follow the written chain, without caps; N, C: chain ends. Non-standard residues stand in square brackets, D forms with d. Residues, ends and D or L forms follow the SMILES beside them. *: point of attachment. dAsp(3R-OH) = N[C@@H](C(=O)O)[C@@H](O)C(=O)O; Palmitoleoyl = CCCCCC/C=C\CCCCCCCC(=O)*; X1 = NC[C@H](O)[C@@H](N[*:1])C(=O)[*:2]; X2 = CCC(C)(O)[C@H](N[*:1])C(=O)[*:2]; d(aIle) = CC[C@H](C)[C@@H](N)C(=O)O; Myristoyl = CCCCCCCCCCCCCC(=O)*; dOrn = NCCC[C@@H](N)C(=O)O; hSer = N[C@@H](CCO)C(=O)O

Columns and labels:
Escherichia coli = format: cell-based
[1] = tested on: Klebsiella pneumoniae (ATCC BAA-1705); format: cell-based
A. baylyi = format: cell-based, Acinetobacter baylyi; details: for sensitivity of Δ1ptE A. baylyi strain: at 8 μg/mL; for MIC against A. baylyi compared with A. baumannii: nonpathogenic relative A. baylyi; for nature of growth inhibition: plating of inhibited wells from A. baylyi broth cultures
A. baumannii ATCC 17978 = experiment: Thigh infection neutropenic mouse model, efficacy (CFU/thigh); format: in vivo, Acinetobacter baumannii; details: for Decrease (%) / Δ / CFU/thigh Time post inoculation 2, 26 h / Log (CFU/thigh) Time post inoculation 2, 26 h / CFU/thigh Time post inoculation 2, 26 h, Mean / Log (CFU/thigh) Time post inoculation 2, 26 h, Mean / Dilution (CFU/plate) 0 / Dilution (CFU/plate) 10^1 / Dilution (CFU/plate) 10^2 / Dilution (CFU/plate) 10^3 / Dilution (CFU/plate) 10^4 / Dilution (CFU/plate) 10^5 / Dilution (CFU/plate) 10^6: BID, q12h; for Decrease (%) / Δ / CFU/thigh Time post inoculation 2, 26 h / Log (CFU/thigh) Time post inoculation 2, 26 h / CFU/thigh Time post inoculation 2, 26 h, Mean / Log (CFU/thigh) Time post inoculation 2, 26 h, Mean: 26 h; for Decrease (%): decrease in counts compared to the vehicle group; for Δ: difference in bacterial counts relative to the baseline group (2 h initial counts); for CFU/thigh Time post inoculation 2, 26 h / Log (CFU/thigh) Time post inoculation 2, 26 h: individual animals; for CFU/thigh Time post inoculation 2, 26 h, Mean / Log (CFU/thigh) Time post inoculation 2, 26 h, Mean: mean of 5 animals; for Dilution (CFU/plate) 0 / Dilution (CFU/plate) 10^1 / Dilution (CFU/plate) 10^2 / Dilution (CFU/plate) 10^3 / Dilution (CFU/plate) 10^4 / Dilution (CFU/plate) 10^5 / Dilution (CFU/plate) 10^6: raw data; for Dilution (CFU/plate) 0: dilution 0, individual animals; for Dilution (CFU/plate) 10^1: dilution 10^1, individual animals; for Dilution (CFU/plate) 10^2: dilution 10^2, individual animals; for Dilution (CFU/plate) 10^3: dilution 10^3, individual animals; for Dilution (CFU/plate) 10^4: dilution 10^4, individual animals; for Dilution (CFU/plate) 10^5: dilution 10^5, individual animals; for Dilution (CFU/plate) 10^6: dilution 10^6, individual animals
[2] = tested on: Acinetobacter baumannii (ATCC 19606); details: for MIC: ATCC 19606
[3] = tested on: Enterococcus faecalis (ATCC 29212)

CCCCCCCCCCCCCC(=O)N[C@H](CCCN)C(=O)N[C@@H](CO)C(=O)N[C@H](C(=O)N[C@@H](C(=O)N[C@@H](C(=O)N[C@@H]1C(=O)NCC(=O)N[C@@H](C(C)(O)CC)C(=O)N[C@H]([C@@H](C)CC)C(=O)N[C@@H](CCO)C(=O)N[C@@H](C)C(=O)N[C@H]([C@@H](C)CC)C(=O)N[C@@H](CCC(=O)O)C(=O)O[C@@H]1C)[C@@H](O)CN)[C@@H](O)C(=O)O)C(C)C (stereo partly drawn) [Compound 1, Turnercyclamycin A] (Myristoyl-[dOrn]SV[dAsp(3R-OH)][X1]TG[X2][d(aIle)][hSer]A[d(aIle)]E; ester 6-C)
MIC90 (Escherichia coli): 1 µg/mL (≈ 0.636 µM) | MIC90 [1]: 2 µg/mL (≈ 1.27 µM) | sensitivity of Δ1ptE A. baylyi strain (A. baylyi): still sensitive | MIC against A. baylyi compared with A. baumannii (A. baylyi): same MIC | nature of growth inhibition (A. baylyi): bactericidal, not bacteriostatic | Decrease (%) (A. baumannii ATCC 17978; 6.25 mg/kg IV): 27% | Δ (A. baumannii ATCC 17978; 6.25 mg/kg IV): 2.27 | CFU/thigh Time post inoculation 2, 26 h (A. baumannii ATCC 17978; 6.25 mg/kg IV): 4.59 × 10^7 CFU/thigh and 3.63 × 10^7 CFU/thigh and 4.62 × 10^7 CFU/thigh and 6.93 × 10^7 CFU/thigh and 7.71 × 10^7 CFU/thigh | Log (CFU/thigh) Time post inoculation 2, 26 h (A. baumannii ATCC 17978; 6.25 mg/kg IV): 7.66 Log (CFU/thigh) (2×) and 7.56 Log (CFU/thigh) and 7.84 Log (CFU/thigh) and 7.89 Log (CFU/thigh) | CFU/thigh Time post inoculation 2, 26 h, Mean (A. baumannii ATCC 17978; 6.25 mg/kg IV): 5.50 × 10^7 CFU/thigh | Log (CFU/thigh) Time post inoculation 2, 26 h, Mean (A. baumannii ATCC 17978; 6.25 mg/kg IV): 7.72 Log (CFU/thigh) | Dilution (CFU/plate) 0 (A. baumannii ATCC 17978; 6.25 mg/kg IV): >300 CFU/plate | Dilution (CFU/plate) 10^1 (A. baumannii ATCC 17978; 6.25 mg/kg IV): >300 CFU/plate | Dilution (CFU/plate) 10^2 (A. baumannii ATCC 17978; 6.25 mg/kg IV): >300 CFU/plate | Dilution (CFU/plate) 10^3 (A. baumannii ATCC 17978; 6.25 mg/kg IV): >300 CFU/plate | Dilution (CFU/plate) 10^4 (A. baumannii ATCC 17978; 6.25 mg/kg IV): 153 CFU/plate and 121 CFU/plate and 154 CFU/plate and 231 CFU/plate and 257 CFU/plate | Dilution (CFU/plate) 10^5 (A. baumannii ATCC 17978; 6.25 mg/kg IV): 21 CFU/plate and 9 CFU/plate and 16 CFU/plate and 24 CFU/plate and 26 CFU/plate | Dilution (CFU/plate) 10^6 (A. baumannii ATCC 17978; 6.25 mg/kg IV): 3 CFU/plate (2×) and 1 CFU/plate and 0 CFU/plate and 2 CFU/plate | decrease in bacterial CFU/thigh (A. baumannii ATCC 17978; 12.5 mg/kg IV twice daily, p<0.05, CFU at 26 hours): 98% | Decrease (%) (A. baumannii ATCC 17978; 12.5 mg/kg IV): 98% | Δ (A. baumannii ATCC 17978; 12.5 mg/kg IV): 0.10 | CFU/thigh Time post inoculation 2, 26 h (A. baumannii ATCC 17978; 12.5 mg/kg IV): 5.67 × 10^5 CFU/thigh and 7.02 × 10^6 CFU/thigh and 7.89 × 10^5 CFU/thigh and 1.32 × 10^5 CFU/thigh and 1.35 × 10^4 CFU/thigh | Log (CFU/thigh) Time post inoculation 2, 26 h (A. baumannii ATCC 17978; 12.5 mg/kg IV): 5.75 Log (CFU/thigh) and 6.85 Log (CFU/thigh) and 5.90 Log (CFU/thigh) and 5.12 Log (CFU/thigh) and 4.13 Log (CFU/thigh) | CFU/thigh Time post inoculation 2, 26 h, Mean (A. baumannii ATCC 17978; 12.5 mg/kg IV): 1.70 × 10^6 CFU/thigh | Log (CFU/thigh) Time post inoculation 2, 26 h, Mean (A. baumannii ATCC 17978; 12.5 mg/kg IV): 5.55* Log (CFU/thigh) | Dilution (CFU/plate) 0 (A. baumannii ATCC 17978; 12.5 mg/kg IV): >300 CFU/plate | Dilution (CFU/plate) 10^1 (A. baumannii ATCC 17978; 12.5 mg/kg IV): >300 CFU/plate (4×) and 45 CFU/plate | Dilution (CFU/plate) 10^2 (A. baumannii ATCC 17978; 12.5 mg/kg IV): 189 CFU/plate and >300 CFU/plate and 263 CFU/plate and 44 CFU/plate and 4 CFU/plate | Dilution (CFU/plate) 10^3 (A. baumannii ATCC 17978; 12.5 mg/kg IV): 12 CFU/plate and 234 CFU/plate and 24 CFU/plate and 2 CFU/plate and 0 CFU/plate | Dilution (CFU/plate) 10^4 (A. baumannii ATCC 17978; 12.5 mg/kg IV): 0 CFU/plate (2×) and 1 CFU/plate and 28 CFU/plate and 2 CFU/plate | Dilution (CFU/plate) 10^5 (A. baumannii ATCC 17978; 12.5 mg/kg IV): 0 CFU/plate (4×) and 1 CFU/plate | Dilution (CFU/plate) 10^6 (A. baumannii ATCC 17978; 12.5 mg/kg IV): 0 CFU/plate | clearing of bacterial CFU/thigh (A. baumannii ATCC 17978; 25 mg/kg IV twice daily, CFU at 26 hours): 99.99% | Decrease (%) (A. baumannii ATCC 17978; 25 mg/kg IV): 100% | Δ (A. baumannii ATCC 17978; 25 mg/kg IV): −1.65^# | CFU/thigh Time post inoculation 2, 26 h (A. baumannii ATCC 17978; 25 mg/kg IV): 5.91 × 10^3 CFU/thigh and 7.68 × 10^3 CFU/thigh and 8.76 × 10^3 CFU/thigh and 1.38 × 10^4 CFU/thigh and 1.89 × 10^3 CFU/thigh | Log (CFU/thigh) Time post inoculation 2, 26 h (A. baumannii ATCC 17978; 25 mg/kg IV): 3.77 Log (CFU/thigh) and 3.89 Log (CFU/thigh) and 3.94 Log (CFU/thigh) and 4.14 Log (CFU/thigh) and 3.28 Log (CFU/thigh) | CFU/thigh Time post inoculation 2, 26 h, Mean (A. baumannii ATCC 17978; 25 mg/kg IV): 7.61 × 10^3 CFU/thigh | Log (CFU/thigh) Time post inoculation 2, 26 h, Mean (A. baumannii ATCC 17978; 25 mg/kg IV): 3.80* Log (CFU/thigh) | Dilution (CFU/plate) 0 (A. baumannii ATCC 17978; 25 mg/kg IV): 197 CFU/plate and 256 CFU/plate and 292 CFU/plate and >300 CFU/plate and 63 CFU/plate | Dilution (CFU/plate) 10^1 (A. baumannii ATCC 17978; 25 mg/kg IV): 26 CFU/plate and 32 CFU/plate and 29 CFU/plate and 46 CFU/plate and 8 CFU/plate | Dilution (CFU/plate) 10^2 (A. baumannii ATCC 17978; 25 mg/kg IV): 3 CFU/plate (2×) and 1 CFU/plate (2×) and 4 CFU/plate | Dilution (CFU/plate) 10^3 (A. baumannii ATCC 17978; 25 mg/kg IV): 0 CFU/plate | Dilution (CFU/plate) 10^4 (A. baumannii ATCC 17978; 25 mg/kg IV): 0 CFU/plate | Dilution (CFU/plate) 10^5 (A. baumannii ATCC 17978; 25 mg/kg IV): 0 CFU/plate | Dilution (CFU/plate) 10^6 (A. baumannii ATCC 17978; 25 mg/kg IV): 0 CFU/plate | MIC90 [2]: 8 µg/mL (≈ 5.09 µM) | MIC [2]: 8 µg/mL (≈ 5.09 µM) | MIC90 [3]: >64 µg/mL | MIC90 (Staphylococcus aureus): >64 µg/mL | decrease of Staphylococcus aureus growth (Staphylococcus aureus): 50%

CCCCCC/C=C\CCCCCCCC(=O)N[C@H](CCCN)C(=O)N[C@@H](CO)C(=O)N[C@H](C(=O)N[C@@H](C(=O)N[C@@H](C(=O)N[C@@H]1C(=O)NCC(=O)N[C@@H](C(C)(O)CC)C(=O)N[C@H]([C@@H](C)CC)C(=O)N[C@@H](CCO)C(=O)N[C@@H](C)C(=O)N[C@H]([C@@H](C)CC)C(=O)N[C@@H](CCC(=O)O)C(=O)O[C@@H]1C)[C@@H](O)CN)[C@@H](O)C(=O)O)C(C)C (stereo partly drawn) [Compound 2, Turnercyclamycin B] (Palmitoleoyl-[dOrn]SV[dAsp(3R-OH)][X1]TG[X2][d(aIle)][hSer]A[d(aIle)]E; ester 6-C)
MIC90 (Escherichia coli): 1 µg/mL (≈ 0.625 µM) | MIC90 [1]: 2 µg/mL (≈ 1.25 µM) | sensitivity of Δ1ptE A. baylyi strain (A. baylyi): still sensitive | MIC against A. baylyi compared with A. baumannii (A. baylyi): same MIC | nature of growth inhibition (A. baylyi): bactericidal, not bacteriostatic | MIC90 [2]: 8 µg/mL (≈ 5 µM) | MIC [2]: 8 µg/mL (≈ 5 µM) | MIC90 [3]: >64 µg/mL | MIC90 (Staphylococcus aureus): >64 µg/mL | decrease of Staphylococcus aureus growth (Staphylococcus aureus): 50% | IC50 against HEK-293 (HEK-293 cells): failed to calculate an IC50 value | hemolytic activity, no activity up to (mouse red blood cell): > 64 µg/mL
